Conditions: Table 4
Description: Water solutions or suspensions of the complexes under investigation have been injected intraperitoneally 30÷60 min. before beginning of the experiment. Animals from the control group got equal amounts of physiological salt solution. High altitude hypoxia was made in special air tight chambers, in which a lift of the animals up to the altitude 10,000 m has been imitated by pumping out of air. A criterion of validity for the complexes was increase of mice life length and survivability of these.
Interferon inducing activity of the complexes has been studied with various methods, including the study with native leukocytes of human donor blood.
Antiinflammatory effect has been studied for animals according to the method by Ju. Strel'nikov. Experiments have been carried out with white mice of mass 20 g. Aseptic inflammation was caused by injection of 0.1 ml of 2.5% formalin solution into thigh thickness of an animal's paw. A compound under investigation was injected into the stomach in the dose equimolecular to 20 mg/kg of indometacin two hours before the injection of formalin. Distinction of the edema was estimated by increase of a mass of inflamed and uninflammed paws in experimental groups of animals compared to control ones. […] Simultaneously antiinflammatory activity of indometacin was studied for comparison.

SMILES	Expansion of Effect Spectrum for the Complex Medicament
NC12CC3CC(CC(C3)C1)C2.[CH3][Ge]12[O]CCN(CC(=O)[O]1)CC(=O)[O]2	- . -
Cc1cn([C@H]2C[C@H](N=[N+]=[N-])[C@@H](CO)O2)c(=O)[nH]c1=O.[CH3][Ge]12[O]CCN(CC(=O)[O]1)CC(=O)[O]2	- . -
[CH3][Ge]12[O]CCN(CC(=O)[O]1)CC(=O)[O]2.c1ccc(Cc2nc3ccccc3[nH]2)cc1 [Dibasolum OGC (R = CH3, R1R2 = R5R6 = O)]	- . -
[OH][Ge]12[O]CCN(CC[O]1)CC[O]2.c1ccc(Cc2nc3ccccc3[nH]2)cc1 [Dibasolum OGC (R = OH)]	- . -
[SH][Ge]12[O]CCN(CC[O]1)CC[O]2.c1ccc(Cc2nc3ccccc3[nH]2)cc1 [Dibasolum OGC (R = SH)]	- . -

Same assay, conditions: Table 5

SMILES	Expansion of Effect Spectrum for the Complex Medicament
CN(C)CCCN1c2ccccc2Sc2ccc(Cl)cc21.O=C1CN2CC[O][Ge]([C]34CC5CC(CC(C5)C3)C4)([O]1)[O]C(=O)C2	- . -
CN(C)CCC=C1c2ccccc2Sc2ccc(Cl)cc21.C[CH2][Ge]12[O]CCN(CC(=O)[O]1)CC(=O)[O]2	- . -
O=C1CN2CC[O][Ge]([C]34CC5CC(CC(C5)C3)C4)([O]1)[O]C(=O)C2.O=C1NC(=O)C(c2ccccc2)(c2ccccc2)N1	- . -
CCC1(c2ccccc2)C(=O)NCNC1=O.O=C1CN2CC[O][Ge]([C]34CC5CC(CC(C5)C3)C4)([O]1)[O]C(=O)C2	- . -
N[C@@H](Cc1ccc(O)c(O)c1)C(=O)O.O=C1CN2CC[O][Ge]([C]34CC5CC(CC(C5)C3)C4)([O]1)[O]C(=O)C2	- . -
CN1CCN(CCCN2c3ccccc3Sc3ccc(Cl)cc32)CC1.[CH3][Ge]12[O]CCN(CC(=O)[O]1)CC(=O)[O]2	- . -
O=C1CN=C(c2ccccc2Cl)c2cc(Br)ccc2N1.[CH3][Ge]12[O]C(=O)CN(CC(=O)[O]1)CC(=O)[O]2	- . -
O=C1CN2CC[O][Ge]([C]34CC5CC(CC(C5)C3)C4)([O]CC2)[O]1.O=C1CN=C(c2ccccc2Cl)c2cc(Br)ccc2N1	- . -
CCC1(c2ccccc2)C(=O)NC(=O)NC1=O.O=C1CN2CC[O][Ge]([C]34CC5CC(CC(C5)C3)C4)([O]1)[O]C(=O)C2	- . -
CN(C)CCCN1c2ccccc2Sc2ccc(Cl)cc21.[OH][Ge]12[O]CCN(CC[O]1)CC[O]2 [Aminazinum OGC (R = OH)]	- . -
CN(C)CCCN1c2ccccc2Sc2ccc(Cl)cc21.[SH][Ge]12[O]CCN(CC[O]1)CC[O]2 [Aminazinum OGC (R = SH)]	- . -
CN(C)CCC=C1c2ccccc2Sc2ccc(Cl)cc21.[OH][Ge]12[O]CCN(CC[O]1)CC[O]2 [Chlorprotexenum OGC (R = OH)]	- . -
CN(C)CCC=C1c2ccccc2Sc2ccc(Cl)cc21.[SH][Ge]12[O]CCN(CC[O]1)CC[O]2 [Chlorprotexenum OGC (R = SH)]	- . -
CN1C(=O)CN=C(c2ccccc2)c2cc(Cl)ccc21.[OH][Ge]12[O]CCN(CC[O]1)CC[O]2 [Diazepam OGC (R = OH)]	- . -
CN1C(=O)CN=C(c2ccccc2)c2cc(Cl)ccc21.[SH][Ge]12[O]CCN(CC[O]1)CC[O]2 [Diazepam OGC (R = SH)]	- . -
O=C1NC(=O)C(c2ccccc2)(c2ccccc2)N1.[OH][Ge]12[O]CCN(CC[O]1)CC[O]2 [Dipheninum OGC (R = OH)]	- . -
CCC1(c2ccccc2)C(=O)NCNC1=O.[OH][Ge]12[O]CCN(CC[O]1)CC[O]2 [Hexamidinum OGC (R = OH)]	- . -

Source: patent publication US6451850B1, “Bio-chemical germanium complexes with high therapeutic efficiency and wide application spectrum” (priority 2001, dated 2002)
